What was measured:
human SGLT1 = human SGLT1 (Homo sapiens (Human), UniProt P13866); experiment: Inhibitory effect on human SGLT1 activity (14C-AMG uptake in CHO cells expressing hSGLT1); assay type: cell-based; settings: 14C-AMG transport, CHO cells expressing hSGLT1, 2 hours
Source text: (§1) Human SGLT1 (hSGLT1), human SGLT2 (hSGLT2) genes were amplified from a human marathon-ready cDNA library (Clontech)) by means of an PCR method, after which resulting amplified sequences were combined with a pcDNA 3.1(+) vector, which was a mammalian expression vector, so as to prepare recombinant expression vectors pcDNA3.1(+)/hSGLT1, pcDNA3.1(+)/hSGLT2. Resulting recombinant expression vectors were transformed into Chinese Hamster Ovarian cells, after which stably transformed clones were selected by means of a colony picking method by using a resistance to G418, a selective marker included in the vector. Out of selected clones, clones for expressing hSGLT1 and hSGLT2 were selected based on activity in analysis of ^14C-α-methyl-D-glucopyranoside (^14C-AMG) transport.
To analyze a sodium-dependent glucose transport, cells for expressing hSGLT1 and hSGLT2 were seeded at 1×10^5 cells per well into a 96-well culture plate, after which resulting cells were cultured in an RPMI 1640 medium containing 10% fetal bovine serum (FBS). In 1 day after culture, the resulting cells were cultured in a pre-treatment buffer solution (10 mM HEPES, 5 mM tris, 140 mM choline chloride, 2 mM KCl, 1 mM CaCl2 and 1 mM MgCl2, pH 7.4) under 37° C./5% CO2 conditions for 10 minutes. Then, the resulting cells were cultured in a uptake buffer solution (10 mM HEPES, 5 mM tris, 140 mM NaCl, 2 mM KCl, 1 mM CaCl2, 1 mM MgCl2 and 1 mM AMGS pH 7.4) containing 14C-AMG (8 μM) and a compound of the present disclosure or a dimethyl sulfoxide (DMSO) vehicle under 37° C./5% CO2 conditions for 2 hours. After culture, the cells were washed twice with a washing buffer solution (a pre-treatment buffer solution containing 10 mM AMG at room temperature), after which a radiation thereof was measured by using a liquid scintillation counter. IC50 of each compound was measured according to a non-linear regression analysis by using SigmaPlot (Document Analytical Biochemistry 429: 70-75, Molecular and Cellular Biochemistry 280: 91-98, 2005). SGLT1/2 in-vitro assay results are shown in a following Table 1.

human SGLT2 = human SGLT2 (Homo sapiens (Human), UniProt P31639); experiment: Inhibitory effect on human SGLT2 activity (14C-AMG uptake in CHO cells expressing hSGLT2); assay type: cell-based; settings: 14C-AMG transport, CHO cells expressing hSGLT2, 2 hours
Sequence of human SGLT2 (P31639 whole entry): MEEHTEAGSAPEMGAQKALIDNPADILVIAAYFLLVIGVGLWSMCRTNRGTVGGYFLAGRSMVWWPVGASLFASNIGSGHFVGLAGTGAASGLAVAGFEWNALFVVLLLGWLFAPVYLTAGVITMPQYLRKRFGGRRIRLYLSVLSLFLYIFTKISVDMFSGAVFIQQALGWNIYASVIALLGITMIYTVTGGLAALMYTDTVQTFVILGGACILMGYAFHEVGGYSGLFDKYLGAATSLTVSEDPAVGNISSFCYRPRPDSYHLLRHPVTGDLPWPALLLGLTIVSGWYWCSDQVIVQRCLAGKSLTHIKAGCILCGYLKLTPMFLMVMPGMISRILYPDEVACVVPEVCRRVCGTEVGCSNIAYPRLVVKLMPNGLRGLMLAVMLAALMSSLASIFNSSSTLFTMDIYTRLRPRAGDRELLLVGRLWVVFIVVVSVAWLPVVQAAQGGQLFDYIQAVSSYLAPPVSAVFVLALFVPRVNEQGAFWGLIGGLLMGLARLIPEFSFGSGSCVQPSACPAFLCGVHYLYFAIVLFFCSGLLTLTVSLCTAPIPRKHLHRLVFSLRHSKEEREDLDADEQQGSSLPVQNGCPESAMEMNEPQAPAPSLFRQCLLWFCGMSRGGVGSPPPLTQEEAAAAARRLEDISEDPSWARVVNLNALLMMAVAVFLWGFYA
Source text: as §1
In 1 day after culture, the resulting cells were cultured in a pre-treatment buffer solution (10 mM HEPES, 5 mM tris, 140 mM choline chloride, 2 mM KCl, 1 mM CaCl2 and 1 mM MgCl2, pH 7.4) under 37° C./5% CO2 conditions for 10 minutes. Then, the resulting cells were cultured in a uptake buffer solution (10 mM HEPES, 5 mM tris, 140 mM NaCl, 2 mM KCl, 1 mM CaCl2, 1 mM MgCl2 and 1 mM AMGS pH 7.4) containing 14C-AMG (8 μM) and a compound of the present disclosure or a dimethyl sulfoxide (DMSO) vehicle under 37° C./5% CO2 conditions for 2 hours. After culture, the cells were washed twice with a washing buffer solution (a pre-treatment buffer solution containing 10 mM AMG at room temperature), after which a radiation thereof was measured by using a liquid scintillation counter.

Sequence of human SGLT1 (P13866 whole entry): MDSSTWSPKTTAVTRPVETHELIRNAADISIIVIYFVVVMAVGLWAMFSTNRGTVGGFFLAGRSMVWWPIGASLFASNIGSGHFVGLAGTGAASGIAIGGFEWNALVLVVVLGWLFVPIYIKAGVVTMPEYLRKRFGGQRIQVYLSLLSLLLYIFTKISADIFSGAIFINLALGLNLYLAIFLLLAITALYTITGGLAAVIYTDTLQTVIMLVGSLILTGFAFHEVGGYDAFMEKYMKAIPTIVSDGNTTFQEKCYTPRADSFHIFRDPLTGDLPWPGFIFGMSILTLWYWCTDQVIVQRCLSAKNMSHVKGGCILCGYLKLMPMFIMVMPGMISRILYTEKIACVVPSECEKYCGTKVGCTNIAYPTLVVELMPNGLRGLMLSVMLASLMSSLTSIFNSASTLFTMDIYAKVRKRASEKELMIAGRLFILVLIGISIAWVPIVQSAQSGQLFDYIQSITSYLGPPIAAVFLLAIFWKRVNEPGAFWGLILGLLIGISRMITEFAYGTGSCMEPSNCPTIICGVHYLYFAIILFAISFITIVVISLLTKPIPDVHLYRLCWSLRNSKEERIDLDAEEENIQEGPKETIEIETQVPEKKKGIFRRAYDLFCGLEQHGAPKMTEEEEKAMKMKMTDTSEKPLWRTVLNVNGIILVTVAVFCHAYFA

Which results are given for Cc1ccc([C@@H]2O[C@H](CO)[C@@H](O)[C@H](O)[C@H]2O)cc1Cc1ccc(-c2ccc(F)cc2)s1 [Canagliflozin, reference compound]?
IC50 (human SGLT1): 550 nM; IC50 (human SGLT2): 4.9 nM

For Cc1c(C2O[C@H](CO)C(O)[C@H](O)C2O)cc(Cc2ccc(C(C)C)cc2)c2c1CCC2 (stereo in doubt) [Example 7, (2R,3S,4R,5R,6S)-2-(hydroxymethyl)-6-(7-(4-isopropylbenzyl)-4-methyl-2,3-dihydro-1H-indene-5-yl)tetrahydro-2H-pyran-3,4,5-triol], which IC50 (human SGLT1) is on record?
Its IC50 is 296 nM.

Which IC50 (human SGLT1) does the source give for CCCc1ccc(Cc2cc([C@@H]3O[C@H](CO)C(O)[C@H](O)C3O)c(C)c3c2CCC3)cc1 (stereo in doubt) [Example 6, (2R,3S,4R,5R,6S)-2-(hydroxymethyl)-6-(4-methyl-7-(4-propylbenzyl)-2,3-dihydro-1H-indene-5-yl)tetrahydro-2H-pyran-3,4,5-triol] here?
The IC50 was 190 nM.

What does the source list for CCc1ccc(Cc2cc([C@@H]3O[C@H](CO)[C@@H](O)[C@H](O)[C@H]3O)c(CC(C)C)c3c2CCC3)cc1 [Example 65, (2S,3R,4R,5S,6R)-2-(7-(4-ethylbenzyl)-4-isobutyl-2,3-dihydro-1H-indene-5-yl)-6-(hydroxymethyl)tetrahydro-2H-pyran-3,4,5-triol]?
IC50 (human SGLT1): 1610 nM; IC50 (human SGLT2): 38 nM

CCCCc1c([C@@H]2O[C@H](CO)[C@@H](O)[C@H](O)[C@H]2O)cc(Cc2ccc(C)cc2)c2c1CCC2 [Example 58, (2S,3R,4R,5S,6R)-2-(4-butyl-7-(4-methylbenzyl)-2,3-dihydro-1H-indene-5-yl)-6-(hydroxymethyl)tetrahydro-2H-pyran-3,4,5-triol] was tested. Which IC50 (human SGLT1) did it give?
The IC50 was 289 nM.

And the IC50 (human SGLT2)?
The IC50 was 12.1 nM.

How did the IC50 (human SGLT1) turn out when CCCc1c([C@@H]2O[C@H](CO)[C@@H](O)[C@H](O)[C@H]2O)cc(Cc2ccc(C)cc2)c2c1CCC2 [Example 53, (2R,3S,4R,5R,6S)-2-(hydroxymethyl)-6-(7-(4-methylbenzyl)-4-propyl-2,3-dihydro-1H-indene-5-yl)tetrahydro-2H-pyran-3,4,5-triol] was run?
Its IC50 is 94.7 nM.

And the IC50 (human SGLT2)?
Its IC50 is 1.83 nM.

For CCCCc1c([C@@H]2O[C@H](CO)[C@@H](O)[C@H](O)[C@H]2O)cc(Cc2ccc(OC)cc2)c2c1CCC2 [Example 57, (2S,3R,4R,5S,6R)-2-(4-butyl-7-(4-methoxybenzyl)-2,3-dihydro-1H-indene-5-yl)-6-(hydroxymethyl)tetrahydro-2H-pyran-3,4,5-triol], which IC50 (human SGLT1) is on record?
The IC50 was 373 nM.

What about the IC50 (human SGLT2) of the same compound?
The IC50 was 5.86 nM.

How did the IC50 (human SGLT1) turn out when CCOc1ccc(Cc2cc([C@@H]3O[C@H](CO)[C@@H](O)[C@H](O)[C@H]3O)c(C)c3c2CCC3)cc1 [Example 2, (2S,3R,4R,5S,6R)-2-(7-(4-ethoxybenzyl)-4-methyl-2,3-dihydro-1H-indene-5-yl)-6-(hydroxymethyl)tetrahydro-2H-pyran-3,4,5-triol] was run?
The IC50 was 76 nM.

What about the IC50 (human SGLT2) of the same compound?
Its IC50 is 3 nM.

What does the source list for CCc1ccc(Cc2cc([C@@H]3O[C@H](CO)C(O)[C@H](O)C3O)c(C)c3c2CCC3)cc1 (stereo in doubt) [Example 5, (2S,3R,4R,5S,6R)-2-(7-(4-ethylbenzyl)-4-methyl-2,3-dihydro-1H-indene-5-yl)-6-(hydroxymethyl)tetrahydro-2H-pyran-3,4,5-triol]?
IC50 (human SGLT1): 40 nM; IC50 (human SGLT2): 2.8 nM

Which IC50 (human SGLT1) does the source give for CCCc1c([C@@H]2O[C@H](CO)[C@@H](O)[C@H](O)[C@H]2O)cc(Cc2ccc(OC)cc2)c2c1CCC2 [Example 52, (2R,3S,4R,5R,6S)-2-(hydroxymethyl)-6-(7-(4-methoxybenzyl)-4-propyl-2,3-dihydro-1H-indene-5-yl)tetrahydro-2H-pyran-3,4,5-triol] here?
The IC50 was 236 nM.

And the IC50 (human SGLT2)?
Its IC50 is 9.04 nM.

Which IC50 (human SGLT1) does the source give for COc1ccc(Cc2cc([C@@H]3O[C@H](CO)[C@@H](O)[C@H](O)[C@H]3O)c(C(C)C)c3c2CCC3)cc1 [Example 61, (2R,3S,4R,5R,6S)-2-(hydroxymethyl)-6-(4-isopropyl-7-(4-methoxybenzyl)-2,3-dihydro-1H-indene-5-yl)tetrahydro-2H-pyran-3,4,5-triol] here?
The IC50 was 199 nM.

What about the IC50 (human SGLT2) of the same compound?
The IC50 was 2.04 nM.

Which IC50 (human SGLT1) does the source give for CSc1ccc(Cc2cc([C@@H]3O[C@H](CO)[C@@H](O)[C@H](O)[C@H]3O)c(C)c3c2CCC3)cc1 [Example 13] here?
Its IC50 is 15 nM.

What about the IC50 (human SGLT2) of the same compound?
Its IC50 is 1.2 nM.

Which results are given for CCc1c([C@@H]2O[C@H](CO)[C@@H](O)[C@H](O)[C@H]2O)cc(Cc2ccc(C)cc2)c2c1CCC2 [Example 41, (2S,3R,4R,5S,6R)-2-(4-ethyl-7-(4-methylbenzyl)-2,3-dihydro-1H-indene-5-yl)-6-(hydroxymethyl)tetrahydro-2H-pyran-3,4,5-triol]?
IC50 (human SGLT1): 41.8 nM; IC50 (human SGLT2): 3.68 nM

For Cc1c([C@@H]2O[C@H](CO)[C@@H](O)[C@H](O)[C@H]2O)cc(Cc2ccc(Cl)cc2)c2c1CCC2 [Example 16, (2S,3R,4R,5S,6R)-2-(7-(4-chlorobenzyl)-4-methyl-2,3-dihydro-1H-indene-5-yl)-6-(hydroxymethyl)tetrahydro-2H-pyran-3,4,5-triol], which IC50 (human SGLT1) is on record?
Its IC50 is 14.3 nM.

For C=Cc1ccc(Cc2cc([C@@H]3O[C@H](CO)[C@@H](O)[C@H](O)[C@H]3O)c(C)c3c2OCC3)cc1 [Example 34, (2R,3S,4R,5R,6S)-2-(hydroxymethyl)-6-(4-methyl-7-(4-vinylbenzyl)-2,3-dihydrobenzofuran-5-yl)tetrahydro-2H-pyran-3,4,5-triol], which IC50 (human SGLT1) is on record?
Its IC50 is 295 nM.

With Cc1c([C@@H]2O[C@H](CO)C(O)[C@H](O)C2O)cc(Cc2ccc(OC(C)C)cc2)c2c1CCC2 (stereo in doubt) [Example 3, (2R,3S,4R,5R,6S)-2-(hydroxymethyl)-6-(7-(4-isopropoxybenzyl)-4-methyl-2,3-dihydro-1H-indene-5-yl)tetrahydro-2H-pyran-3,4,5-triol] as the compound, how does the IC50 (human SGLT1) read?
Its IC50 is 142 nM.

Which results are given for Cc1ccc(Cc2cc([C@@H]3O[C@H](CO)[C@@H](O)[C@H](O)[C@H]3O)c(CC(C)C)c3c2CCC3)cc1 [Example 64, (2R,3S,4R,5R,6S)-2-(hydroxymethyl)-6-(4-isobutyl-7-(4-methylbenzyl)-2,3-dihydro-1H-indene-5-yl)tetrahydro-2H-pyran-3,4,5-triol]?
IC50 (human SGLT1): 518 nM; IC50 (human SGLT2): 19.1 nM

With CCc1c([C@@H]2O[C@H](CO)[C@@H](O)[C@H](O)[C@H]2O)cc(Cc2ccc(OC)cc2)c2c1CCC2 [Example 42, (2S,3R,4R,5S,6R)-2-(4-ethyl-7-(4-methoxybenzyl)-2,3-dihydro-1H-indene-5-yl)-6-(hydroxymethyl)tetrahydro-2H-pyran-3,4,5-triol] as the compound, how does the IC50 (human SGLT1) read?
The IC50 was 60.5 nM.

What about the IC50 (human SGLT2) of the same compound?
Its IC50 is 2.73 nM.

COc1ccc(Cc2cc([C@@H]3O[C@H](CO)[C@@H](O)[C@H](O)[C@H]3O)c(C)c3c2CCC3)cc1 [Example 1, (2R,3S,4R,5R,6S)-2-(hydroxymethyl)-6-(7-(4-methoxybenzyl)-4-methyl-2,3-dihydro-1H-indene-5-yl)tetrahydro-2H-pyran-3,4,5-triol] was tested. Which IC50 (human SGLT1) did it give?
Its IC50 is 9.1 nM.

What about the IC50 (human SGLT2) of the same compound?
Its IC50 is 1.3 nM.

From patent US10752604B2, “C-glucoside derivative containing fused phenyl ring or pharmaceutically acceptable salt thereof, process for preparing same, and pharmaceutical composition comprising same” (Je II Pharmaceutical Co., Ltd., priority 2016, dated 2020)
